The subject of the assay is Renilla Luciferase (R/L) mRNA. The assay can be described thus: Delivery efficiency: R/L protein expression after i.d. injection of mRNA-LNP into mouse ears (luminescence). The format is in vivo, ICR mice. To be noted: conclusion from FIGS. 4 to 8; replacing cholesterol/butyl lithocholate in LNP. As to the method: mRNA-LNP was injected into the ears of ICR mice by I.D. in an amount of 5 μg/20 μl based on RNA to identify expression.
The experimental process is as follows. Each experimental group was prepared in a dose of 5 μg/20 μl based on RNA and then injected into each ear of mice by I.D. Thereafter, the expression was identified according to the maximum expression time of a target protein. In the case of R/L on which the experiment was actually carried out, expression and maintenance were identified according to two time periods which are 6 hours and 24 hours.
After anesthesia using an individual respiratory anesthesia machine, a drug to be administered that is suitable for the experimental condition was injected via an insulin syringe. Thereafter, euthanasia was performed using CO2 at each corresponding time, and then ears were cut off. While dipping the cut ears in 300 μl of 1× Renilla Lyswas buffer, ears were completely crushed using scissors and a homogenizer instrument. Thereafter, 20 μl was taken from the mixture solution, transferred to a white 96-well plate, and added with 100 μl of Promega's Renilla luciferase assay substrate, and then luminescence was measured to compare expression.

Molecules are shown by their SMILES.

`C[C@H](CCC(=O)O)[C@H]1CC[C@H]2[C@@H]3CC[C@@H]4CC(=O)CC[C@]4(C)[C@H]3CC[C@]12C` [3-oxo-5β-cholanoic acid]: the “effect as substitute for the structure-retaining compound (R/L expression of the LNP)” value is “excellent effects”.
The entry for `CC1=C(/C=C/C(C)=C/C=C/C(C)=C/C=C/C=C(C)/C=C/C=C(C)/C=C/C2=C(C)CCCC2(C)C)C(C)(C)CCC1` [beta-carotene] is “excellent effects”.
The result for `O=c1cc(-c2ccc(O)c(O)c2)oc2cc(O)cc(O)c12` [luteolin] reads “excellent effects”.

For the origin of these results see patent US20240226287A1, “NOVEL LIPID COMPOUND AND LIPID NANOPARTICLE COMPOSITION COMPRISING THE SAME” (KOREA INSTITUTE OF SCIENCE AND TECHNOLOGY, priority 2022, published 2024).
